In patent US20250375417A1, “OREXIN RECEPTOR 2 (OX2R) AGONIST FOR USE IN NARCOLEPSY TYPE 1 (NT1)” (TAKEDA PHARMACEUTICAL COMPANY LIMITED, priority 2024, published 2025):

Tests used:
[1] = tested on: participants with NT1; assay: Safety (TEAEs), LTE study interim analysis, NT1 participants; type: in vivo, human; conditions: for TEAE insomnia, frequency / TEAE micturition frequency, frequency / TEAE micturition urgency, frequency: LTE
Description: This was a phase 2/3 multicenter, dose-blind, long-term extension (LTE) study of Compound A. Participants from controlled studies conducted with Compound A, who had up to a 3-month dosing gap between their parent study and the screening period for this study, were eligible to participate in this study.
Day 1 dosing for all participants occurred in-clinic with PK and safety assessments. Participants who were undergoing nocturnal polysomnography (nPSG) and an MWT during the final assessment of their Compound A parent study had the option of staying overnight in the clinic on Day −1 so they were already in the clinic for Day 1 the following day. Clinic visits after Week 4 were scheduled monthly up to Week 12, then approximately every 3 months until the end of Year 2 (Weeks 2, 4, 8, 12, 26, 38, 52, 64, 78, 90, and 104). […] Participants had either an in-clinic or home health follow up visit 4 weeks after their last dose. All other visits could be conducted through home health. Laboratory tests for safety were obtained biweekly up until Week 12, followed by monthly until Year 1, and then approximately every 3 months thereafter. Monthly phone calls were conducted to collect adverse event (AE) and concomitant medication information in Year 2.
In this dose-blind study, all participants received Compound A. Participants entering the study with or without a dosing gap from a parent Compound A study remained on the same indication-specific dose of Compound A assigned to them in their parent study. Participants randomized to placebo or comparator in their parent study were randomized to one of the indication-specific dose regimens of Compound A available in this study. The investigator could request a change to either a higher or lower dose level of Compound A to be dispensed at Week 8 in the LTE treatment period. Subsequently, if the participant wished to return to their original LTE dose, this could be implemented at Week 12 in the LTE. No further dose adjustments were allowed for the duration of the study, except on a case by case basis as approved by the sponsor. The dose never exceeded the maximum designated dose level in the study. For a participant with NT1, if the next highest dose was the 7 mg total daily dose, the participant was randomized to 1 of those 2 dose regimens (i.e., 2 mg followed by 5 mg, or 7 mg once daily).
Standard safety endpoints (e.g., TEAEs, physical examination findings, vital signs, 12-lead ECG measures, clinical laboratory results) for early clinical investigation were included. Further, because cardiovascular effects had been noted in nonclinical models with Compound A and OX2R agonists in general, and these effects are thought to be on-target effects, close monitoring of cardiovascular parameters, including time-matched BP measurements before and after dosing to detect any changes and potential tolerance in BP after the administration of repeat doses to participants with NT1 or NT2 were included.
For participants with NT1: • Dose Regimen 1: 0.5 mg twice daily, approximately 3 hours apart; • Dose Regimen 2: 2 mg followed by 2 mg, approximately 3 hours apart; • Dose Regimen 3: 2 mg followed by 5 mg, approximately 3 hours apart; * • Dose Regimen 4: 7 mg once daily.*
Participants completing either Example 1 or Example 2 with ≤3 months between parent study-end and LTE screening could enroll. Primary endpoint is the occurrence of treatment-emergent adverse events (TEAEs); secondary endpoints are change from baseline (parent study) in sleep onset latency on the Maintenance of Wakefulness Test (SOL-MWT), Epworth Sleepiness Scale (ESS) score, and weekly cataplexy rate (WCR). Participants with NT1 receive oral Compound A 0.5 mg twice 3 hours apart, 2 mg twice 3 hours apart, 2 mg then 5 mg 3 hours apart, or 7 mg once daily. Dose adjustments are allowed at specific timepoints (8 weeks and 12 weeks of the study and at other weeks on a sponsor-approved case-by-case basis). TEAEs are summarized under the dose at TEAE onset.

[2] = tested on: participants with NT2; assay: Safety (TEAEs), Phase 2 NT2 trial; type: in vivo, human
Experimental: The principal mitigation strategy for risks related to BP increase, HR increase, insomnia, and bladder events included appropriate selection of the study population; use of the inpatient clinical research unit setting and home health visits, which permitted close monitoring and rapid institution of appropriate care as needed; appropriate specified monitoring procedures; and use of experienced staff trained in study procedures. To mitigate cardiovascular risks, BP and HR were measured frequently in this study; cardiovascular effects were evaluated by using BP and HR assessments and electrocardiographic (ECG) assessments. Stopping rules for individual participants and the overall study were established. In addition, because liver function test (LFT) elevation cases have been observed in another OX2R agonist with structural similarity, LFTs (ALT, AST, GGT, and total bilirubin) were closely monitored.
Liver function test (LFTs) (alanine aminotransferase [ALT], aspartate aminotransferase [AST], γ-glutamyl transferase [GGT], and total bilirubin) were closely monitored in this study. Stopping criteria for individual participants and the overall study, based on abnormal LFTs were established.
Eligible participants were age 18-70 years, with Epworth Sleepiness Scale (ESS) score>12 and no other current EDS-related medical conditions. Participants were randomized 1:1:1 to daily oral Compound A 2 mg twice 3 hours apart, 2 mg then 5 mg 3 hours later, or placebo. Study endpoints included change from baseline to Week 8 in mean Sleep Onset Latency on the Maintenance of Wakefulness Test (mean SOL-MWT; primary endpoint), ESS total score, and incidence of treatment-emergent adverse events (TEAEs). Participants who completed the placebo-controlled study could enroll in a ˜2-year Long Term Extension (LTE) study. LTE TEAE data up to Jan. 25, 2024 are reported.

[3] = 0.5 mg/0.5 mg (dose at TEAE onset)

Structure (SMILES): CCS(=O)(=O)N[C@@H]1[C@H](Cc2cccc(-c3cc(F)cc(F)c3)c2F)N(C(=O)C(C)(C)O)CC1(F)F [Compound A, N-{(2S,3R)-4,4-difluoro-1-(2-hydroxy-2-methylpropanoyl)-2-[(2,3′,5′-trifluoro[1,1′-biphenyl]-3-yl)methyl]pyrrolidin-3-yl}ethanesulfonamide]
- Hepatotoxicity or visual disturbances ([1]; LTE interim): No cases of hepatotoxicity or visual disturbances were reported
- Participants with severe drug-related TEAEs (insomnia, cataplexy) ([1]; LTE interim (N=104)): Two
- Participants discontinued due to TEAEs ([1]; LTE interim (N=104), 3 unrelated to Compound A): 6
- Participants who experienced a TEAE ([1]; LTE interim analysis (N=104), all doses): 54.8%
- TEAE insomnia, frequency [1, 3]: 7.1%
- TEAE micturition frequency, frequency [1, 3]: 10.7%
- TEAE micturition urgency, frequency [1, 3]: 10.7%
- TEAE insomnia, frequency ([1]; 2 mg/2 mg (dose at TEAE onset)): 10.9%
- TEAE micturition frequency, frequency ([1]; 2 mg/2 mg (dose at TEAE onset)): 4.3%
- TEAE micturition urgency, frequency ([1]; 2 mg/2 mg (dose at TEAE onset)): 2.2%
- TEAE insomnia, frequency ([1]; 2 mg/5 mg (dose at TEAE onset)): 10.8%
- TEAE micturition frequency, frequency ([1]; 2 mg/5 mg (dose at TEAE onset)): 8.1%
- TEAE micturition urgency, frequency ([1]; 2 mg/5 mg (dose at TEAE onset)): 2.7%
- TEAE insomnia, frequency ([1]; 7 mg (dose at TEAE onset)): 7.9%
- TEAE micturition frequency, frequency ([1]; 7 mg (dose at TEAE onset)): 7.9%
- TEAE micturition urgency, frequency ([1]; 7 mg (dose at TEAE onset)): 10.5%
- Occurrence of TEAEs ([2]; Compound A-treated participants (28/47), 8 weeks): 59.6%
- Serious TEAEs ([2]; parent and LTE study): no serious TEAEs
- Participants discontinued due to TEAEs ([2]; parent study (arm not stated)): Two
